# Experimental data published in ChEMBL document CHEMBL1147213, “Impact on farnesyltransferase inhibition of 4-chlorophenyl moiety replacement in the Zarnestra series” (Eur J Med Chem, 2007).
# How the values were obtained:
# [1] = Inhibition of FTase by SPA; set-up: species or system Homo sapiens
# Homo sapiens = species: Homo sapiens; experiment: Inhibition of FTase at 100 nM by SPA
IC50 [1],inhibition (Homo sapiens),SMILES
5 nM,,CCc1nccn1C(c1ccc2c(c1)c(-c1cccc(Cl)c1)nc1nnnn12)c1cncn1C (stereo not drawn)
4 nM,,Cn1cncc1C(c1ccc2c(c1)c(-c1cccc(Cl)c1)nc1nnnn12)n1ccnc1-c1ccc(F)cc1 (stereo not drawn)
< 100 nM,69%,Cn1cncc1C(N)(c1ccc2c(c1)c(-c1cccc(Cl)c1)nc1nnnn12)c1ccc(Cl)s1 (stereo not drawn)
> 100 nM,32%,OC(c1ccc2c(c1)c(-c1cccc(Cl)c1)cc1nnnn12)c1cncn1Cc1ccc(Cl)cc1 (stereo not drawn)
11 nM,,N#Cc1ccc(Cn2cncc2C(O)c2ccc3c(c2)c(-c2cccc(Cl)c2)cc2nnnn23)cc1 (stereo not drawn)
3.5 nM,,Cn1cncc1C(N)(c1ccc(Cl)cc1)c1ccc2c(c1)c(-c1cccc(Cl)c1)cc1nnnn12 (stereo not drawn)
1 nM,,Cn1cncc1C(c1ccc2c(c1)c(-c1cccc(Cl)c1)nc1nnnn12)n1ccnc1-c1ccccc1 (stereo not drawn)
16 nM,,Cn1cncc1C(O)(c1ccc2c(c1)c(-c1cccc(Cl)c1)nc1nnnn12)c1ccc(Cl)s1 (stereo not drawn)
1 nM,,Cn1cncc1C(c1ccc2c(c1)c(-c1cccc(Cl)c1)nc1nnnn12)n1ccnc1-c1cccc(C#N)c1 (stereo not drawn)
3.5 nM,,Cn1cncc1C(N)(c1ccc(Cl)cc1)c1ccc2c(c1)c(-c1cccc(Cl)c1)nc1nnnn12 (stereo not drawn)

SMILES,IC50 [1],inhibition (Homo sapiens)
Cn1cncc1[C@](N)(c1ccc(Cl)cc1)c1ccc2c(c1)c(-c1cccc(Cl)c1)cc(=O)n2C [(S)-TIPIFARNIB],0.9 nM,
